Experimental data from patent publication US8598342B2, “Methods and compounds for antimicrobial intervention” (President and Fellows of Harvard College, priority 2008, dated 2013).
“Also recorded” adds a separate entry of the source.

Tests used:
Format in all cases: cell-based, Staphylococcus aureus
[1] = system: S. aureus; assay: Two dimensional drug interaction analysis between tunicamycin and targocil; settings: normally inhibitory concentrations of targocil; 18 h at 30° C.
Experimental: (A) Targocil MIC data for a panel of Gram-positive strains, including MRSA clinical isolates B5271 and 5340A. Growth was monitored in triplicate after 12 h at 28° C. using optical density. (B) Two dimensional drug interaction analysis between tunicamycin and targocil grown for 18 h at 30° C. […] At higher concentrations, tunicamycin is toxic because it inhibits cell wall biosynthesis. […] Varying concentrations of drug were added to […] of S. aureus RN4220 after 5 h and cell count was monitored over time at 30° C. […] Cells were grown at 28° C. for 12 h and monitored for growth using optical density (OD600). Data were normalized to the DMSO controls for each strain. (E) Two classes of mutants were examined: phage resistant (m1 3) and phage sensitive (m4-5).
Having discovered targocil, the next challenge was to identify its target in S. aureus. We first used the natural product tunicamycin to verify that targocil requires the presence of a functional WTA pathway. Although toxic at high concentrations, tunicamycin is a selective TarO inhibitor that abolishes WTA expression at sublethal concentrations. (Hancock I C, Wiseman G, & Baddiley J (1976) Febs Letters 69:75-80) We predicted that tunicamycin should antagonize targocil by preventing flux into the WTA biosynthetic pathway. […]

[2] = system: S. aureus RN4220; assay: Phage infection (PFUs) of S. aureus grown with tunicamycin; settings: increasing tunicamycin
[3] = system: WTA biosynthesis in S. aureus RN4220; assay: PAGE analysis of WTAs isolated from S. aureus RN4220 grown with tunicamycin; settings: increasing but sub-lethal concentrations of tunicamycin
[4] = system: S. aureus; assay: SAR of targocil analogs: MIC and mutation frequency
Excerpt: Based on the discovery of targocil as an inhibitor of WTA biosynthesis, further studies of the antibiotic were undertaken to elucidate the basis of its activity and to discover other antibiotics based on the structure of targocil. The goal for the initial SAR of targocil was to alter only the A ring to determine modifications that would improved potency as measured by MIC. We developed synthetic chemistry schemes to modify the targocil scaffold and, initially, nineteen different derivatives of targocil were made. […] Modifications to the D ring appear particularly promising. Finally, the optimized compounds from this second round of SAR could then be used to discover modifications to the amine group that could be tolerated.

Molecule	antagonism of targocil by tunicamycin [1]	phage infection (PFUs) [2]	WTA biosynthesis (PAGE of isolated WTAs) [3]	mutation frequency, relative to targocil ([4]; in vitro)	potency as measured by MIC, relative to targocil ([4]; two methoxy groups at R1 and R2 of ring A)
tunicamycin	complete protection; also recorded: antagonizes the lethal effect of targocil	dose-dependent decrease	dose-dependent decrease	–	–
CCN(CC)c1nc2c(S(=O)(=O)c3ccccc3)nnn2c2cc(OC)c(OC)cc12 [Compound 4-22-7, N,N-Diethyl-7,8-dimethoxy-3-(phenylsulfonyl)-[1,2,3]triazolo[1,5-a]quinazolin-5-amine]	–	–	–	better	more potent
